Measured values published in patent publication US8178708B2, “Lipid derivatives” (Pronova Biopharma Norge AS, priority 2006, dated 2012).

Columns and labels:
[1] = target: T1, ligand binding domain of human RXRα (Homo sapiens, UniProt P19793); test: GAL4-hRXRα LBD luciferase reporter, transient transfection in COS-1 cells; conditions: for Luciferase activation (fold activation) hRXRα: 10 μM, GAL4-hRXRα LBD chimera in COS-1 cells, negative control = 1.00
T1 sequence (P19793 227-458 limits assumed): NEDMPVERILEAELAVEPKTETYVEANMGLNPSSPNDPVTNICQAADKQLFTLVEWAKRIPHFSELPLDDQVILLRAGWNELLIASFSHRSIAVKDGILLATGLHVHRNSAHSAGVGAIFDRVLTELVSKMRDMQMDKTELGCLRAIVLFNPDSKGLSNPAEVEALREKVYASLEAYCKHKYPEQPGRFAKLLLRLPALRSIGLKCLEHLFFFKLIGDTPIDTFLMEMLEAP

[2] = target: T2, ligand binding domain of human PPARα (Homo sapiens, UniProt Q07869); test: GAL4-hPPARα LBD luciferase reporter, transient transfection in COS-1 cells; conditions: for Luciferase activation (fold activation) hPPARα: 10 μM, GAL4-hPPARα LBD chimera in COS-1 cells, negative control = 1.00; for PPAR selectivity profile (in words): conclusion from table 1, 10 μM
T2 sequence (Q07869 239-466 limits assumed): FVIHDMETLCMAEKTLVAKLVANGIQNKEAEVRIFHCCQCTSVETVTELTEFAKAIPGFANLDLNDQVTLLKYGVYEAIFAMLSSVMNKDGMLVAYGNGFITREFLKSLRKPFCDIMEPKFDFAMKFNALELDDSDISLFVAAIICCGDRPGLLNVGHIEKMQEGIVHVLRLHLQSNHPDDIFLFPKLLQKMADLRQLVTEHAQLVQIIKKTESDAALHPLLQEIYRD

[3] = target: T3, ligand binding domain of human PPARγ (Homo sapiens, UniProt P37231); test: GAL4-hPPARγ LBD luciferase reporter, transient transfection in COS-1 cells; conditions: 10 μM; GAL4-hPPARγ LBD chimera in COS-1 cells; negative control = 1.00
T3 sequence (P37231 238-503 limits assumed): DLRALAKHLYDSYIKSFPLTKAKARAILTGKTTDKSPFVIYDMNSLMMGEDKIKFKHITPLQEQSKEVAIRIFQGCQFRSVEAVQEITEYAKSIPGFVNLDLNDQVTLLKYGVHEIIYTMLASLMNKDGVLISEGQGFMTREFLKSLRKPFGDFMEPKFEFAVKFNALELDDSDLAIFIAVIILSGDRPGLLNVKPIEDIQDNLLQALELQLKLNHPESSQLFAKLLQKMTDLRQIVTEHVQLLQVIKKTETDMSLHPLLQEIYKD

[4] = target: T4, ligand binding domain of human PPARδ (Homo sapiens, UniProt Q03181); test: GAL4-hPPARδ LBD luciferase reporter, transient transfection in COS-1 cells; conditions: 10 μM; GAL4-hPPARδ LBD chimera in COS-1 cells; negative control = 1.00
T4 sequence (Q03181 211-439 limits assumed): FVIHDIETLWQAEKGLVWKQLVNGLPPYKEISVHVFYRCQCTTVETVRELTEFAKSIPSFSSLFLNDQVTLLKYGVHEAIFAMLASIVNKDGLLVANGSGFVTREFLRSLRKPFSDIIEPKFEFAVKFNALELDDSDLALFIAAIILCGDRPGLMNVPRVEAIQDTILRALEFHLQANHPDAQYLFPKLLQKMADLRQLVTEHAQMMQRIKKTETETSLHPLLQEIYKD

NF-κB = test: Inhibition of NF-κB in human monocytic cell lines (U937-3xkB-LUC luciferase assay); format: cell-based; conditions: U937-3xkB-LUC cells, NF-κB induced by LPS or human TNF-α; FIG. 1
Description: The novel compounds and DHA were solubilized to 12.5 μM in DMSO flushed with argon and stored at −20° C. Dexamethasone 10 μM in DMSO was used as positive control.
U937-3xkB-LUC cells, (Carlsen, J. Immun, 2002), were cultured in RPMI-1640 medium with L-glutamine ([…]), penicillin (50 U/ml), streptomycin ([…]), hygromycin (75 ug/ml), 10% Fetal Bovine Serum at 37° C. and 5% CO2. In the Cells were seeded in 24-well plates wherein 1% Fetal Bovin Serum was added to the medium. NF-κB activity was induced by lipopolysaccharide (LPS) (1 ug/ml) or human TNF-α (10 ng/ml). Cell viability was measured by trypan blue staining.
Luciferase activity was measured by imaging with a IVIS Imaging System from Xenogen Corp., USA. The Luminescence was detected after 1 min. and 5 min after addition of 0.2 mg d-luciferin per. ml cell medium. Number of photons in each well pr. second was calculated using Living Image Software (Xenogen Corp., USA).

Which “Luciferase activation (fold activation) hRXRα” value [1] does the source give for `CC/C=C\C/C=C\C/C=C\C/C=C\C/C=C\CCC/C(C)=C/C(=O)O` [Compound 4, (2E,7Z,10Z,13Z,16Z,19Z)-3-methyl-docosa-2,7,10,13,16,19-hexaenoic acid] here?
Its value is 0.90 ± 0.08 fold activation.

And the “Luciferase activation (fold activation) hPPARα” value [2]?
The value was 4.51 ± 0.52 fold activation.

And the “PPAR selectivity profile (in words)” value [2]?
The value was “selective PPARα modulators/activators”.

What about the “Luciferase activation (fold activation) hPPARγ” value [3] of the same molecule?
The value was 1.56 ± 0.12 fold activation.

What about the “Luciferase activation (fold activation) hPPARδ” value [4] of the same molecule?
The value was 1.28 ± 0.08 fold activation.

Which “Luciferase activation (fold activation) hRXRα” value [1] does the source give for `CC/C=C\C/C=C\C/C=C\C/C=C\CC/C=C/C=C(\C)C(=O)O` [Compound 11, (2E,4E,8Z,11Z,14Z,17Z)-2-methyl-icosa-2,4,8,11,14,17-hexaenoic acid] here?
Its value is 0.84 ± 0.09 fold activation.

What about the “Luciferase activation (fold activation) hPPARα” value [2] of the same molecule?
Its value is 6.79 ± 0.21 fold activation.

And the “PPAR selectivity profile (in words)” value [2]?
The value was “selective PPARα modulators/activators”.

And the “Luciferase activation (fold activation) hPPARγ” value [3]?
The value was 1.67 ± 0.11 fold activation.

And the “Luciferase activation (fold activation) hPPARδ” value [4]?
Its value is 1.17 ± 00.20 fold activation.

Which results are given for `CC/C=C\C/C=C\C/C=C\C/C=C\CC/C=C/C=C/C(=O)O` [Compound 13, (2E,4E,8Z,11Z,14Z,17Z)-icosa-2,4,8,11,14,17-hexaenoic acid]?
Inhibition of the NF-κB pathway (in words) (NF-κB): potent inhibitors of the NF-κB pathway; Luciferase activation (fold activation) hRXRα [1]: 0.81 ± 0.05 fold activation; Luciferase activation (fold activation) hPPARα [2]: 4.89 ± 0.31 fold activation; PPAR selectivity profile (in words) [2]: selective PPARα modulators/activators; Luciferase activation (fold activation) hPPARγ [3]: 1.63 ± 0.06 fold activation; Luciferase activation (fold activation) hPPARδ [4]: 1.11 ± 0.16 fold activation

Which results are given for `CC/C=C\C/C=C\C/C=C\C/C=C\CC/C=C/C=C/C(C)=C/C(=O)O` [Compound 25, (2E,4E,6E,10Z,13Z,16Z,19Z)-3-methyl-docosa-2,4,6,10,13,16,19-heptaenoic acid]?
Inhibition of the NF-κB pathway (in words) (NF-κB): potent inhibitors of the NF-κB pathway; Luciferase activation (fold activation) hRXRα [1]: 1.57 ± 0.08 fold activation; RXRα ligand activity (in words) ([1]; conclusion from table 1, 10 μM): RXRα ligand; Luciferase activation (fold activation) hPPARα [2]: 8.27 ± 0.81 fold activation; PPAR selectivity profile (in words) [2]: PPAR pan modulators/activators; Luciferase activation (fold activation) hPPARγ [3]: 4.32 ± 0.29 fold activation; Luciferase activation (fold activation) hPPARδ [4]: 1.47 ± 0.38 fold activation

For `Cc1cccc(Nc2cc(Cl)nc(SCC(=O)O)n2)c1C` [Wy14643, reference compound], which “Luciferase activation (fold activation) hPPARα” value [2] is on record?
Its value is 2.27 ± 0.04 fold activation.
